Measurements published in patent US5191093A, “Process for preparing crystalline calcium pseudomonate” (Beecham Group p.l.c., priority 1990, dated 1993).
Where a name gives a salt, the structure may show the parent alone. Read-outs that look alike come from different tables or passages of the source.

Legend:
[1] = format: physicochemical
Description: |Thermal stability data: for crystalline calcium |pseudomate dihydrate, amorphous calcium pseudomonate |Percentage |Initial |Potency |after |Storage ** | ** Expressed as percentage of initial purity.

B.subtilis = experiment: In vitro MIC against veterinary bacteria, Diagnostic Sensitivity Test Agar; format: cell-based; conditions: Bacillus subtilis, ATCC6633; strain ATCC 6633; 18 hours at 37° C.
Experimental: (§1) The activity of the compounds of the Examples against various veterinarily important bacteria, was assayed in vitro using two-fold serial dilutions in Diagnostic Sensitivity Test Agar inoculated with 10^4 organisms.

S.typhimurium = experiment: as above; format: cell-based; conditions: Salmonella enterica, strain S18, 18 hours at 37° C.
Experimental: as §1

Strep.suis (group D) = experiment: as above; format: cell-based; conditions: Streptococcus suis; strain SPS11; 18 hours at 37° C.
Experimental: as §1

Strep.uberis = experiment: as above; format: cell-based; conditions: Streptococcus uberis; strain SPU1; 18 hours at 37° C.
Experimental: as §1

E.coli [2] = experiment: as above; format: cell-based; conditions: Escherichia coli, 18 hours at 37° C.
Experimental: as §1

S.dublin = experiment: as above; format: cell-based; conditions: Salmonella enterica; strain S7; 18 hours at 37° C.
Experimental: as §1

Moraxella Bovis = experiment: as above; format: cell-based; conditions: 18 hours at 37° C.
Experimental: as §1

Strep.agalactiae = experiment: as above; format: cell-based; conditions: Streptococcus agalactiae; strain SPA1; 18 hours at 37° C.
Experimental: as §1

Corynebacterium pyogenes = experiment: as above; format: cell-based; conditions: Trueperella pyogenes; strain CY1; 18 hours at 37° C.
Experimental: as §1

Staph.aureus = experiment: as above; format: cell-based; conditions: Staphylococcus aureus, 18 h, 18 hours at 37° C.
Experimental: as §1

[3] = tested on: Erysipelothrix rhusiopathiae; experiment: as above; format: cell-based; conditions: NCTC8163, strain NCTC 8163, 18 hours at 37° C.
Experimental: as §1

Past.multocida = experiment: as above; format: cell-based; conditions: Pasteurella multocida; strain PA1; 18 hours at 37° C.
Experimental: as §1

Bord.bronchiseptica = experiment: as above; format: cell-based; conditions: Bordetella bronchiseptica, 18 h, 18 hours at 37° C.
Experimental: as §1

Strep.dysgalaciae = experiment: as above; format: cell-based; conditions: strain SPD1; 18 hours at 37° C.
Experimental: as §1

Past.haemolytica = experiment: as above; format: cell-based; conditions: Mannheimia haemolytica; strain PA5; 18 hours at 37° C.
Experimental: as §1

M.hyosynoviae = experiment: In vitro MIC against Mycoplasma, Friis broth agarose; format: cell-based; conditions: 144 h; strain ATCC 25591; 6 days at 37° C.
Experimental: (§2) The activity of the compounds of the Examples against various mycoplasmal organisms was assayed in vitro in Friis broth solidified with 0.9% agarose and inoculated with 10^3 to 10^5 C.F.U. The minimum inhibitory concentrations (MIC's) were determined after incubation for 6 days at 37° C. and are shown in Table 1.

M.gallisepticum = experiment: as above; format: cell-based; conditions: Mycoplasmoides gallisepticum, 144 h; strain S6; 6 days at 37° C.
Experimental: as §2

M.hyopneumoniae = experiment: as above; format: cell-based
Experimental: as §2

M.bovis = experiment: as above; format: cell-based; conditions: NCTC10131, 144 h
Experimental: as §2

M.hyorhinis = experiment: as above; format: cell-based; conditions: Mesomycoplasma hyorhinis, 6 days at 37° C.
Experimental: as §2

M.pneumoniae = experiment: as above; format: cell-based; conditions: Mycoplasmoides pneumoniae, ATCC15492, 144 h; strain ATCC 15492; 6 days at 37° C.
Experimental: as §2

M.bovigenitalium = experiment: as above; format: cell-based; conditions: 144 h; strain ATCC 14173; 6 days at 37° C.
Experimental: as §2

S.aureus = experiment: In vitro MIC against human bacteria, nutrient agar with 5% chocolated horse blood; format: cell-based; conditions: Staphylococcus aureus, 18 h, 18 hours at 37° C.
Experimental: (§3) The activity of the compounds of the Examples against various bacteria which are important in diseases of humans, was assayed in vitro using serial dilutions in nutrient agar with 5% chocolated horse blood.

E.coli [4] = experiment: as above; format: cell-based; conditions: Escherichia coli, 18 hours at 37° C.
Experimental: as §3

Sarcina lutea = experiment: as above; format: cell-based; conditions: Micrococcus luteus; strain 8340; 18 hours at 37° C.
Experimental: as §3

Pasteurella multocida = experiment: as above; format: cell-based; conditions: strain 1633, 18 hours at 37° C.
Experimental: as §3

Corynebacterium xerosis = experiment: as above; format: cell-based; conditions: strain 9755, 18 hours at 37° C.
Experimental: as §3

Streptococcus Spp = experiment: as above; format: cell-based; conditions: 18 hours at 37° C.
Experimental: as §3

Haemophilus influenzae = experiment: as above; format: cell-based; conditions: 18 hours at 37° C.
Experimental: as §3

Bacillus subtilis = experiment: as above; format: cell-based; conditions: strain 6633, 18 hours at 37° C.
Experimental: as §3

P.aeruginosa = experiment: as above; format: cell-based; conditions: Pseudomonas aeruginosa; strain 10662; 18 hours at 37° C.
Experimental: as §3

S.pneumoniae = experiment: as above; format: cell-based; conditions: Streptococcus pneumoniae; strain CN33; 18 hours at 37° C.
Experimental: as §3

Neisseria catarrhalis = experiment: as above; format: cell-based; conditions: strain 1502, 18 hours at 37° C.
Experimental: as §3

K.aerogenes = experiment: as above; format: cell-based; conditions: Klebsiella aerogenes; strain A; 18 hours at 37° C.
Experimental: as §3

S.pyogenes = experiment: as above; format: cell-based; conditions: Streptococcus pyogenes, 18 h, 18 hours at 37° C.
Experimental: as §3

S.agalactiae = experiment: as above; format: cell-based; conditions: 18 hours at 37° C.
Experimental: as §3

R.mirabilis = experiment: as above; format: cell-based; conditions: strain 889; 18 hours at 37° C.
Experimental: as §3

S.faecalis = experiment: as above; format: cell-based; conditions: 18 hours at 37° C.
Experimental: as §3

Water solubility = format: physicochemical; conditions: amorphous form

C/C(=C\C(=O)OCCCCCCCCC(=O)O)C[C@@H]1OC[C@H](C[C@@H]2O[C@H]2[C@@H](C)[C@H](C)O)[C@@H](O)[C@H]1O [Pseudomonic Acid, Pseudomonic acid]
Percentage Initial Potency after Storage ([1]; 192 h): 0%
Percentage Initial Potency after Storage ([1]; 240 h): 77.9%

CC(=CC(=O)OCCCCCCCCC(=O)O)CC1OCC(CC2OC2C(C)C(C)O)C(O)C1O (centres unmarked) [Calcium Pseudomonate dihydrate, Calcium Pseudomonate Dihydrate]
MIC (B.subtilis): 0.07 µg/mL
MIC (S.typhimurium): 80 µg/mL
MIC (Strep.suis (group D)): 0.63 µg/mL
MIC (Strep.uberis): 0.07 µg/mL
MIC (E.coli [2]; NCTC10418, strain NCTC 10418): 80 µg/mL
MIC (E.coli [2]; strain E1): 80 µg/mL
MIC (S.dublin): 80 µg/mL
MIC (Moraxella Bovis): 0.31 µg/mL
MIC (Strep.agalactiae): 0.16 µg/mL
MIC (Corynebacterium pyogenes): > 80 µg/mL
MIC (Staph.aureus; strain 152 (pen.sens.)): 0.16 µg/mL
MIC (Staph.aureus; strain (Mexi)): 0.16 µg/mL
MIC (Staph.aureus; strain B4 (pen.resistant)): 0.16 µg/mL
MIC (Staph.aureus; strain M60): 0.16 µg/mL
MIC (Staph.aureus; strain Oxford): < 0.1 µg/mL
MIC [3]: 20 µg/mL
MIC (Past.multocida): 0.07 µg/mL
MIC (Bord.bronchiseptica; strain B08): 5 µg/mL
MIC (Bord.bronchiseptica; strain B09): 1.3 µg/mL
MIC (Strep.dysgalaciae): 0.16 µg/mL
MIC (Past.haemolytica): 2.5 µg/mL
Percentage Initial Potency after Storage ([1]; 192 h): 97%
Percentage Initial Potency after Storage ([1]; 240 h): 98.9%
MIC (M.hyosynoviae): 0.5 µg/mL
MIC (M.gallisepticum): > 10 µg/mL
MIC (M.hyopneumoniae; Mesomycoplasma hyopneumoniae, 144 h, mean of M.hyopneumoniae strains, read-out: MIC, MEAN): 2.5 µg/mL
MIC (M.hyopneumoniae; Mesomycoplasma hyopneumoniae, 144 h, strain JF 435, 6 days at 37° C., read-out: MIC): 2.5 µg/mL
MIC (M.hyopneumoniae; Mesomycoplasma hyopneumoniae, NCTC10110, 144 h, strain NCTC 10110, 6 days at 37° C., read-out: MIC): 2.5 µg/mL
MIC (M.hyopneumoniae; strain ATTCC 25095, 6 days at 37° C.): 2.5 µg/mL
MIC (M.hyopneumoniae; strain HK (2), 6 days at 37° C.): 2.5 µg/mL
MIC (M.hyopneumoniae; strain J2206/183b, 6 days at 37° C.): 2.5 µg/mL
MIC (M.hyopneumoniae; strain LABER, 6 days at 37° C.): 2.5 µg/mL
MIC (M.hyopneumoniae; strain MS16, 6 days at 37° C.): 2.5 µg/mL
MIC (M.hyopneumoniae; strain PW/C/210, 6 days at 37° C.): 2.5 µg/mL
MIC (M.hyopneumoniae; strain Str 11, 6 days at 37° C.): 2.5 µg/mL
MIC (M.hyopneumoniae; strain TAM 6N, 6 days at 37° C.): 2.5 µg/mL
MIC (M.hyopneumoniae; strain UCD1, 6 days at 37° C.): 2.5 µg/mL
MIC (M.bovis): 0.025 µg/mL
MIC (M.hyorhinis; ATCC23234, 144 h, strain ATCC 23234): 1 µg/mL
MIC (M.hyorhinis; ATCC25021, 144 h, strain ATCC 25021): 1 µg/mL
MIC (M.pneumoniae): 5 µg/mL
MIC (M.bovigenitalium): 0.1 µg/mL
MIC (S.aureus; strain Oxford, read-out: MIC): 0.13 µg/mL
MIC (S.aureus; strain Russell, read-out: MIC): 0.25 µg/mL
MIC (S.aureus; strain T2P-, read-out: MIC): 0.25 µg/mL
MIC (S.aureus; strain T22P-): 0.25 µg/mL
MIC (S.aureus; strain T63P+): 0.25 µg/mL
MIC (S.aureus; strain T67P+): 0.5 µg/mL
MIC (S.aureus; strain V331, read-out: MIC): 0.5 µg/mL
MIC (S.aureus; strain V352, read-out: MIC): 0.5 µg/mL
MIC (S.aureus; strain W2827, read-out: MIC): 0.25 µg/mL
MIC (E.coli [4]; NCTC10418, strain NCTC 10418): 128 µg/mL
MIC (E.coli [4]; strain ESS): 2 µg/mL
MIC (Sarcina lutea): > 128 µg/mL
MIC (Pasteurella multocida): 0.5 µg/mL
MIC (Corynebacterium xerosis): > 128 µg/mL
MIC (Streptococcus Spp; Streptococcus, S.spp. strain 64/848-C, read-out: MIC): 0.5 µg/mL
MIC (Streptococcus Spp; strain 2373C): 0.5 µg/mL
MIC (Streptococcus Spp; strain 2465C): 0.5 µg/mL
MIC (Streptococcus Spp; strain 2761C): 0.5 µg/mL
MIC (Haemophilus influenzae; Haemophilus influenzae, strain Q1, read-out: MIC): 0.13 µg/mL
MIC (Haemophilus influenzae; strain Wy21): 0.13 µg/mL
MIC (Bacillus subtilis): 0.5 µg/mL
MIC (P.aeruginosa): > 128 µg/mL
MIC (S.pneumoniae): 0.03 µg/mL
MIC (Neisseria catarrhalis): 0.13 µg/mL
MIC (K.aerogenes): > 128 µg/mL
MIC (S.pyogenes; strain 1947A): 0.13 µg/mL
MIC (S.pyogenes; strain 1953-A): 0.13 µg/mL
MIC (S.pyogenes; strain BcA): 0.5 µg/mL
MIC (S.pyogenes; strain CN10A): 0.03 µg/mL
MIC (S.agalactiae; Streptococcus agalactiae, strain 2788-B, read-out: MIC): 0.5 µg/mL
MIC (S.agalactiae; strain 2798B): 0.5 µg/mL
MIC (S.agalactiae; strain 2866B): 0.5 µg/mL
MIC (R.mirabilis): 128 µg/mL
MIC (S.faecalis; Enterococcus faecalis, strain Tunisia, read-out: MIC): 128 µg/mL
MIC (S.faecalis; strain I(ER+)): 128 µg/mL
MIC (S.faecalis; strain I): 128 µg/mL
MIC (S.faecalis; strain PAGE): 128 µg/mL

CC(=CC(=O)OCCCCCCCCC(=O)O)CC1OCC(CC2OC2C(C)C(C)O)C(O)C1O (centres unmarked) [crystalline calcium pseudomonate, calcium pseudomonate]
thermal stability (in words) [1]: outstandingly good thermal stability

CC(=CC(=O)OCCCCCCCCC(=O)O)CC1OCC(CC2OC2C(C)C(C)O)C(O)C1O (centres unmarked) [Anhydrous Amorphous Calcium Salt, Amorphous Anhydrous Calcium Pseudomonate A]
water solubility (in words) (Water solubility): sparingly water soluble
thermal stability (in words) [1]: poor thermal stability
Percentage Initial Potency after Storage ([1]; 192 h): 29%
Percentage Initial Potency after Storage ([1]; 240 h): 83.3%
